# Laboratory results: patent publication US20070213339A1 (Bayer Pharmaceuticals Corporation, priority 2004, published 2007)
# Test system: Colo205 human colon carcinoma cell line
# Test: In vitro tumor cell proliferation assay (MTS, CellTiter 96 Aqueous One Solution)
# Assay type: cell-based
# Settings: COLO 205, Colo205 cells, 72 hours compound exposure, MTS absorbance at 490 nm, read-out: IC50 (concentration of test compound required to inhibit proliferation of 50% of the cells)
# Description: In Vitro Tumor Cell Proliferation Assay
# The adherent H460 human non-small cell lung carcinoma and Colo205 human colon carcinoma cell lines were purchased from the American Type and Culture Collection (ATCC, Manassas, Va.) and maintained in RPMI-1640 growth media supplemented with 10% heat inactivated fetal bovine serum (Gibco, Invitrogen Corp. Grand Island, N.Y.). At 37° C. in a humidified atmosphere of 5% CO2.
# The CellTiter 960 Aqueous One Solution kit, MTS, (Promega, Madison, Wis.) was used to measure proliferation of tumor cell lines in vitro. This method monitors the bioreduction of a tetrazolium dye as a measure of cell viability. On Day 0, exponentially growing cells were trypsinized, resuspended in RPMI-1640 growth media supplemented with 10% FCS, 100 u/ml of penicillin G and 100 ug/ml of streptomycin sulfate, and seeded at 2000 cells per well into 96 well microtiter plates. Cells were incubated overnight in a humidified atmosphere of 5% CO2 at 37° C. On Day 1, serial dilutions of compounds were prepared at 2× the finial assay concentration. One hundred microliters of 2× solution was added to test wells in duplicate and control wells received no test compound. The final drug concentration ranged from 0 to 10-20 um in a 5 point dose-response curve. Cells were incubated in the presence of test compounds in a humidified atmosphere of 5% CO2 at 37° C. for 72 hours. After 72 hours of compound exposure, 40 ul of Promega CellTiter 960 Aqueous One Solution was added to each well and absorbance at 490 n-M was measured using a multi-well plate reader. Percent inhibition of proliferation was calculated using the following formula: 100×(1−Absorbancetreated−Background/(Absorbancecontrol−Background)
# Absorbancetreated=absorbance at 490 nm in test wells, cells with test compound
# Absorbancecontrol=absorbance at 490 nm in control wells, cells with no test compound
# Background=absorbance 490 nm in wells containing media and no cells
# The concentration of test compound required to inhibit proliferation of 50% of the cells (IC50) was determined by linear regression analysis.
# Representative compounds of the invention were tested in the above-described Colo205 human colon carcinoma cell line in vitro assay and found to inhibit human colon carcinoma cell proliferation, and are summarized as follows: […]
row,Structure (SMILES),IC50 [µM]
1,"O=C(O)c1cn(-c2ccc(CN3CCCC3)cc2)c2c(Cl)c(N3CCN(c4ccc(Cl)cc4)CC3)c(F)cc2c1=O [Example 3, 8-chloro-6-fluoro-7-[4-(4-chlorophenyl)-piperazin-1-yl]-4-oxo-1-[4-(pyrrolidin-1-ylmethyl)phenyl]-1,4-dihydroquinoline-3-carboxylic acid]",0.5 to 2
2,"N#Cc1cc(C(F)(F)F)ccc1N1CCN(c2c(F)cc3c(=O)c(C(=O)O)cn(-c4ccc(CN5CCCC5)cc4)c3c2Cl)CC1 [Example 5, 8-chloro-7-{4-[2-cyano-4-(trifluoromethyl)-phenyl]piperazin-1-yl}-6-fluoro-4-oxo-1-[4 (pyrrolidin-1-ylmethyl)phenyl]-1,4-dihydroquinoline-3-carboxylic acid]",0.5 to 2
3,"O=C(O)c1cn(-c2ccc(CN3CCCC3)cc2)c2c(Cl)c(N3CCN(c4ccc(F)cc4F)CC3)c(F)cc2c1=O [Example 8, 8-chloro-7-[4-(2,4-difluorophenyl)piperazin-1-yl]-6-fluoro-4-oxo-1-[4-(pyrrolidin-1-ylmethyl)phenyl]-1,4-dihydroquinoline-3-carboxylic acid]",0.5 to 2
4,"NC(=O)c1cccnc1N1CCN(c2c(F)cc3c(=O)c(C(=O)O)cn(-c4ccc(CN5CCCC5)cc4)c3c2Cl)CC1 [Example 9, 7-{4-[3-(aminocarbonyl)pyridin-2-yl]piperazin-1-yl}-8-chloro-6-fluoro-4-oxo-1-[4-(pyrrolidin-1-ylmethyl)phenyl]-1,4-dihydroquinoline-3-carboxylic acid]",0.5 to 2
5,"NC(=O)c1ccccc1N1CCN(c2c(F)cc3c(=O)c(C(=O)O)cn(-c4ccc(CN5CCCC5)cc4)c3c2Cl)CC1 [Example 10, 7-{4-[2-(aminocarbonyl)phenyl]piperazin-1-yl}-8-chloro-6-fluoro-4-oxo-1-[4-(pyrrolidin-1-ylmethyl)phenyl]-1,4-dihydroquinoline-3-carboxylic acid]",2 to 20
6,"Cc1ccccc1N1CCN(c2c(F)cc3c(=O)c(C(=O)O)cn(-c4ccc(CN5CCCC5)cc4)c3c2Cl)CC1 [Example 11, 8-chloro-6-fluoro-7-[4-(2-methylphenyl)-piperazin-1-yl]-4-oxo-1-[4-(pyrrolidin-1-ylmethyl)phenyl]-1,4-dihydroquinoline-3-carboxylic acid]",0.5 to 2
7,"CCOc1ccc(N2CCN(c3c(F)cc4c(=O)c(C(=O)O)cn(-c5ccc(CN6CCCC6)cc5)c4c3Cl)CC2)cc1 [Example 12, 8-chloro-7-[4-(4-ethoxyphenyl)piperazin-1-yl]-6-fluoro-4-oxo-1-[4-(pyrrolidin-1-ylmethyl)phenyl]-1,4-dihydroquinoline-3-carboxylic acid]",2 to 20
8,"O=C(O)c1cn(-c2ccc(CN3CCCC3)cc2)c2c(Cl)c(N3CCN(c4ncccc4C(F)(F)F)CC3)c(F)cc2c1=O [Example 14, 8-chloro-6-fluoro-4-oxo-1-[4-(pyrrolidin-1-yl-methyl)phenyl]-7-{4-[3-(trifluoromethyl)pyridin-2-yl]piperazin-1-yl}-1,4-dihydroquinoline-3-carboxylic acid]",0.5 to 2
9,"CCOc1ccccc1N1CCN(c2c(F)cc3c(=O)c(C(=O)O)cn(-c4ccc(CN5CCCC5)cc4)c3c2Cl)CC1 [Example 16, 8-chloro-7-[4-(2-ethoxyphenyl)piperazin-1-yl]-6-fluoro-4-oxo-1-[4-(pyrrolidin-1-ylmethyl)phenyl]-1,4-dihydroquinoline-3-carboxylic acid]",0.5 to 2

# Second part, the compound after the results:
row,IC50 [µM],Structure (SMILES)
1,< 0.5,"O=C(O)c1cn(-c2ccc(CNC3CCC[C@@H]3O)cc2)c2c(Cl)c(N3CCN(c4ccccn4)CC3)c(F)cc2c1=O (stereo in doubt) [Example 172, 8-chloro-6-fluoro-1{4-[(2-hydroxycyclopentylamino)-methyl]-phenyl}-4-oxo-7-(4-pyridin-2-yl-piperazine-1-yl)-1,4-dihydro-quinoline-3-carboxylic acid]"
2,< 0.5,"O=C(O)c1cn(-c2ccc(CN3CCCC3)cc2)c2c(Cl)c(N3CCN(c4ccccn4)CC3)c(F)cc2c1=O [Example 1, 8-chloro-6-fluoro-4-oxo-7-(4-pyridin-2-yl-piperazin-1-yl)-1-[4-(pyrrolidin-1-ylmethyl)phenyl]-1,4-dihydroquinoline-3-carboxylic acid]"
3,< 0.5,"O=C(O)c1cn(-c2ccc(CN3CCCC3)cc2)c2c(Cl)c(N3CCN(c4ccc(F)cc4)CC3)c(F)cc2c1=O [Example 2, 8-chloro-6-fluoro-7-[4-(4-fluorophenyl)-piperazin-1-yl]-4-oxo-1-[4-(pyrrolidin-1-ylmethyl)phenyl]-1,4-dihydroquinoline-3-carboxylic acid]"
4,< 0.5,"N#Cc1ccccc1N1CCN(c2c(F)cc3c(=O)c(C(=O)O)cn(-c4ccc(CN5CCCC5)cc4)c3c2Cl)CC1 [Example 4, 8-chloro-6-fluoro-7-[4-(2-cyanophenyl)-piperazin-1-yl]-4-oxo-1-[4-(pyrrolidin-1-ylmethyl)phenyl]1,4-dihydroquinoline-3-carboxylic acid]"
5,< 0.5,"O=C(O)c1cn(-c2ccc(CN3CCCC3)cc2)c2c(Cl)c(N3CCN(c4ncccn4)CC3)c(F)cc2c1=O [Example 6, 8-chloro-6-fluoro-4-oxo-7-(4-pyrimidin-2-ylpiperazin-1-yl)-1-[4-(pyrrolidin-1-ylmethyl)phenyl]-1,4-dihydroquinoline-3-carboxylic acid]"
6,< 0.5,"N#Cc1cccnc1N1CCN(c2c(F)cc3c(=O)c(C(=O)O)cn(-c4ccc(CN5CCCC5)cc4)c3c2Cl)CC1 [Example 7, 8-chloro-7-[4-(3-cyanopyridin-2-yl)piperazin-1-yl]-6-fluoro-4-oxo-1-[4-(pyrrolidin-1-ylmethyl)phenyl]-1,4-dihydroquinoline-3-carboxylic acid]"
7,< 0.5,"Cc1cccc(N2CCN(c3c(F)cc4c(=O)c(C(=O)O)cn(-c5ccc(CN6CCCC6)cc5)c4c3Cl)CC2)n1 [Example 13, 8-chloro-6-fluoro-7-[4-(6-methylpyridin-2-yl)-piperazin-1-yl]-4-oxo-1-[4-(pyrrolidin-1-ylmethyl)phenyl]-1,4-dihydroquinoline-3-carboxylic acid]"
8,< 0.5,"CC1CCCN1Cc1ccc(-n2cc(C(=O)O)c(=O)c3cc(F)c(N4CCN(c5ccccn5)CC4)c(Cl)c32)cc1 (stereo not shown) [Example 17, 8-chloro-6-fluoro-1-{4-[(2-methylpyrrolidin-1-yl)methyl]phenyl}-4-oxo-7-(4-pyridin-2-ylpiperazin-1-yl)-1,4-dihydroquinoline-3-carboxylic acid]"
9,< 0.5,"CC1CCCN1Cc1ccc(-n2cc(C(=O)O)c(=O)c3cc(F)c(N4CCN(c5ccc(F)cc5)CC4)c(Cl)c32)cc1 (stereo not shown) [Example 18, 8-chloro-6-fluoro-7-[4-(4-fluorophenyl)-piperazin-1-yl]-1-{4-[(2-methylpyrrolidin-1-yl)methyl]phenyl}-4-oxo-1,4-dihydroquinoline-3-carboxylic acid]"
10,< 0.5,"CC1CCC(C)N1Cc1ccc(-n2cc(C(=O)O)c(=O)c3cc(F)c(N4CCN(c5ccccn5)CC4)c(Cl)c32)cc1 (stereo not shown) [Example 19, 8-chloro-1-{4-[(2,5-dimethylpyrrolidin-1-yl)methyl]phenyl}-6-fluoro-4-oxo-7-(4-pyridin-2-ylpiperazin-1-yl)-1,4-dihydroquinoline-3-carboxylic acid]"
